From US8980571B2, “Method of identifying a candidate compound which may inhibit α9-nAchR overexpression or estrogen receptor-dependent transcription in nicotine-derived-compound-induced breast cancer cells” (Taipei Medical University, priority 2011, dated 2015)

Experiments:
ERK1/2 = assay: kinase competition assay, p-ERK1/2 immunoblotting in MCF-7 cells; format: cell-based, human; conditions: 25 μM pretreatment 30 min, then E2 10 nM 30 min
Experimental: After treatment, the cells were harvested for immunoblotting analysis. The p-ERα, total ER-α, and MAPK kinase proteins levels were detected by immunoblotting analysis.
For the kinase competition assays, the cells were treated with either 10 μM Ly294002, 25 μM PD98059, or 25 μM SP600125 (all from Tocris Cookson Inc., Ellisville, USA) before the treatment with nicotine or E2. All of the cell lines were grown in phenol red-free DMEM for 7 days before the experiments (Lewis, J. S., Thomas, T. J., Pestell, R. G., Albanese, C., Gallo, M. A., and Thomas, T. 2005. Differential effects of 16alpha-hydroxyestrone and 2-methoxyestradiol on cyclin D1 involving the transcription factor ATF-2 in MCF-7 breast cancer cells. J Mol Endocrinol 34:91-105). The DMEM medium used for these experiments contained 10% FBS that had been pretreated with dextran-coated charcoal (0.5% Norit A and 0.05% Dextran T-70) to avoid the effects of serum-derived estrogenic compounds.
Cell extracts were prepared as previously in Ho, Y. S., Lai, C. S., Liu, H. I., Ho, S. Y., Tai, C., Pan, M. H., and Wang, Y. J. 2007. Dihydrolipoic acid inhibits skin tumor promotion through anti-inflammation and anti-oxidation. Biochem Pharmacol 73:1786-1795. Fifty micrograms of protein from each sample were resolved by 12% SDS-polyacrylamide gel electrophoresis, transferred to PVDF and analyzed by western blotting. […]

p-Akt (Ser473) = assay: p-Akt immunoblotting analysis in MCF-7 cells; format: cell-based, human
Text: Both p-AKT and total (T)-AKT protein expression were detected by immunoblotting analysis. The membrane was then re-probed with a GAPDH antibody to ensure equal protein loading.
Both p-AKT and T-AKT protein expression were detected by immunoblotting analysis. The membrane was then re-probed with a GAPDH antibody to ensure equal protein loading.
Fifty micrograms of protein from each sample were resolved by 12% SDS-polyacrylamide gel electrophoresis, transferred to PVDF and analyzed by western blotting. The antibodies employed for the western blotting analysis were purchased from the following vendors: anti-Akt, anti-JNK, anti-phospho JNK, anti-estrogen receptor a (anti-ERα), anti-c-Fos, anti-ERK1/2, anti-phospho ERK1/2, and protein A/G agarose beads were purchased from Santa Cruz Biotechnology (Santa Cruz, Calif., USA); anti-GAPDH, anti-α9-nAChR, and anti-phospho ERα (Ser^167) antibodies were obtained from ABcam (Cambridge, UK); anti-phospho Akt (Ser^473, Thr^308), anti-phospho c-Jun (Ser^73), anti-phospho ERα (Ser^118), and anti-phospho ERα (Ser^104/106) antibodies were purchased from Cell Signaling Technology (Danvers, Mass.). Immunodetection was performed by probing membranes with the appropriate dilutions of specific primary antibodies at room temperature for 2 h. The membranes were then incubated at room temperature for 1 h with either alkaline phosphatase-coupled anti-mouse or anti-rabbit secondary antibodies that were purchased from Santa Cruz Biotechnology. The specific protein complexes were identified by incubating the membranes with colorigenic substrates (nitroblue tetrazolium and 5-bromo-4-chloro-3indolyl-phosphate; KPL, Inc., Gaithersburg, Md., USA). In each experiment, the membranes were also probed with an anti-GAPDH antibody as a protein loading control.

α9-nAChR = α9-nAChR mRNA and protein expression by RT-PCR and immunoblotting in MCF-7 cells; format: cell-based, human; conditions: nicotine 10 μM, 6 h post-treatment
Experimental: After treatment, the cells were harvested, and α9-nAChR mRNA and protein expression levels were determined by RT-PCR and immunoblotting analyses.
Primers specific for the α9-nAChR subunit (forward: 5′-[sequence]-3 (SEQ ID NO:18)′ and reverse: 5′-[sequence]-3 (SEQ ID NO:19)′) were synthesized by MB Mission BioTech (Taipei, Taiwan). The PCR amplicons were analyzed in 1.2% agarose gels (Amresco, Inc, Solon, Ohio, USA) that were stained with ethidium bromide. […] The α9-nAChR mRNA fluorescence intensity was measured and normalized to GUS expression levels using the built-in Roche LightCycler software (version 4).

α9-nAChR promoter = assay: luciferase activity assay, pGL3(α9-nAChR) promoter constructs in MCF-7 cells; format: cell-based, human
Experimental: (§1) Cell lysates were harvested, and relative firefly luciferase activities were measured and normalized to renilla luciferase activities in the same cell lysates. […] The luciferase activity was assayed and normalized to the pRL-TK expression as described above. […] The data were analyzed using nonparametric tests; all P-values are two-sided.
All of the α9-nAChR promoter-luciferase gene fusions were constructed using a pGL3-Basic vector (Promega), and suitable α9 promoter fragments were introduced into the polylinker region of the vector, upstream of the luciferase gene. These constructs were defined as pGL3(α9-nAChR). The fragments were generated using restriction enzymes and were either cloned directly into a pGL3-Basic vector or first subcloned in a pBluescript vector and then transferred into a pGL3-Basic vector.
MCF-7 cells were plated in six-well plates and incubated overnight. The following day, the cells were transiently cotransfected with 2 μg of pGL3 (α9-nAChR) promoter plasmid and 500 ng of RLTK plasmid (Promega, Madison, Wis.) using a MP-100 microporator (Digital Bio, Seoul, Korea) according to the manufacturer's instructions. […] Twenty-four hours later, the cells were lysed with 19 Reporter Lysis Buffer (Promega, Madison, Wis.) and stored at −20° C. overnight. Luciferase activity was then determined by mixing 50 µl of the cell lysate and 50 μl of the Luciferase Assay Reagent (Promega). The total luciferase light units were quantified using a HIDEX Chameleon Microplate Reader. The relative luciferase activity was normalized to that of renilla luciferase in the same cell lysates. Each luciferase assay experiment was performed three times. In this study, the luciferase activity observed in cells transfected with the empty vector was defined as a one-fold change (i.e., basal level).
To more precisely define the regulatory elements that are required by the α9-nAChR promoter for ER-induced transcriptional activation, transient-transfection experiments were conducted using a series of 5′ promoter deletion constructs in pGL3 vectors that were transfected into MCF-7 cells. […]

AP1 DNA-binding sites = conditions: nicotine 0.1-10 μM, 6 h, pGL3(AP1)5, MCF-7
Experimental: as §1
MCF-7 cells were plated in six-well plates and incubated overnight. The following day, the cells were transiently cotransfected with 2 μg of pGL3 (α9-nAChR) promoter plasmid and 500 ng of RLTK plasmid (Promega, Madison, Wis.) using a MP-100 microporator (Digital Bio, Seoul, Korea) according to the manufacturer's instructions. […] Twenty-four hours later, the cells were lysed with 19 Reporter Lysis Buffer (Promega, Madison, Wis.) and stored at −20° C. overnight. Luciferase activity was then determined by mixing 50 µl of the cell lysate and 50 μl of the Luciferase Assay Reagent (Promega). The total luciferase light units were quantified using a HIDEX Chameleon Microplate Reader. The relative luciferase activity was normalized to that of renilla luciferase in the same cell lysates. Each luciferase assay experiment was performed three times. In this study, the luciferase activity observed in cells transfected with the empty vector was defined as a one-fold change (i.e., basal level). […]

[1] = cited from earlier work

With `COc1cccc(-c2cc(=O)c3ccccc3o2)c1N` [PD98059] the “effect on E2-induced increase in p-ERK1/2 protein levels” value (ERK1/2) was “almost completely abolished”.
In the case of `CN1CCCC1c1cccnc1` (stereo not drawn) [nicotine], the “effect of combined treatment on E2-induced Akt (Ser473) phosphorylation” value (p-Akt (Ser473); nicotine 5 μM + E2 5 nM, 15 min, MCF-7) is reported as “enhanced”, the “time to significantly increased p-Akt (Ser473) expression” value (p-Akt (Ser473); nicotine 10 μM, MCF-7) is reported as ≤ 10 min and the “p-Akt (Ser473) expression for the duration of the experiment” value (p-Akt (Ser473); nicotine 10 μM, MCF-7, time course) is reported as “persistent increase”. For the same molecule, the “minimum concentration required for p-Akt (Ser473) induction” value (p-Akt (Ser473); within 15 min, MCF-7) was 5 µM, the “α9-nAChR mRNA and protein expression levels” value (α9-nAChR) was “significantly induced” and the “induced responsiveness of promoter with positions -995 to -260 deleted” value (α9-nAChR promoter; E2 10 nM or nicotine 10 μM) was “preserved”. The “nicotine-induced luciferase activity with promoter positions -41 to -1 deleted” value (α9-nAChR promoter; nicotine 10 μM) was “abolished”, the “induction of α9-nAChR promoter activity (luciferase), full-length construct” value (α9-nAChR promoter; nicotine 10 μM, 24 h, empty vector = one-fold) was “greater than fourfold” and the AP1-linked luciferase activity (AP1 DNA-binding sites) was “increased the AP1-linked luciferase activity in a dose-dependent manner”. The “nicotine absorbed systemically while smoking a cigarette” value ([1]; in vivo) was “roughly 1.0 mg”, the “nicotine concentration in the gastric juice” value ([1]; in vivo) was > 800 ng/mL and the “nicotine concentration in the plasma” value ([1]; in vivo) was “approximately 15 ng/ml”. The “nicotine concentration in the saliva” value ([1]; in vivo) was > 1300 ng/mL and the “share of inhaled nicotine absorbed by the body” value ([1]; studies using 14C-nicotine) was 80-90%.
